Measurements from ChEMBL document CHEMBL1909046, “DrugMatrix in vitro pharmacology data”.
Where a SMILES comes first, the peptide text is derived from it. Bridges are numbered along the chain shown (N, C = ends). [ ]: non-standard residue; d: D form. The star is where a group is joined. Threoninol(2S,3R) = C[C@@H](O)[C@H](CO)N*

Tests used:
Thromboxane-A synthase = target: T1, Thromboxane-A synthase (Homo sapiens, UniProt P24557); assay: biochemical; format: tissue-based, Platelet; details: platelet;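 also: enzyme inhibition assay with PGH2 supplied as substrate; in other assays of this panel Not Active means under 50% inhibition at 10 µM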
T1 sequence (P24557 whole entry): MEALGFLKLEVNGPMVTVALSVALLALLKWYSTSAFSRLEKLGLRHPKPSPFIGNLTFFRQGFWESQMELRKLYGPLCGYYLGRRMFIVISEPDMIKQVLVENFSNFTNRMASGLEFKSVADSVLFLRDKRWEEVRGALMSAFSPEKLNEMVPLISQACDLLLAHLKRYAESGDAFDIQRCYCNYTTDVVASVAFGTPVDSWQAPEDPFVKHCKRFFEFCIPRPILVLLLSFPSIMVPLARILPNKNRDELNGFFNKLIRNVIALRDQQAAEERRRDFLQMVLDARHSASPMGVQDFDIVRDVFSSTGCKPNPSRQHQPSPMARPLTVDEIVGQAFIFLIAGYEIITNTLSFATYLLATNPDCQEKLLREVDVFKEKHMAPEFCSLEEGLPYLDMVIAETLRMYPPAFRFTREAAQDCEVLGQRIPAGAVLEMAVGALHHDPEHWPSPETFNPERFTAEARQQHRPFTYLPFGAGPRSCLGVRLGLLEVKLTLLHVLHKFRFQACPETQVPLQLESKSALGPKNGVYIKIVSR

[1] = DRUGMATRIX: Potassium Channel [KATP] radioligand binding (ligand: [3H] Glyburide); format: cell membranes, Membrane; details: hit-t15; Not Active = under 50% inhibition at 10 µM
Adenosine receptor A1 = target: T2, Adenosine receptor A1 (Homo sapiens, UniProt P30542); format: cell membranes, Membrane; details: cho;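 also: radioligand binding assay at the adenosine A1 receptor, with DPCPX serving as the labelled ligand; in other assays of this panel Not Active means under 50% inhibition at 10 µM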
T2 sequence (P30542 whole entry): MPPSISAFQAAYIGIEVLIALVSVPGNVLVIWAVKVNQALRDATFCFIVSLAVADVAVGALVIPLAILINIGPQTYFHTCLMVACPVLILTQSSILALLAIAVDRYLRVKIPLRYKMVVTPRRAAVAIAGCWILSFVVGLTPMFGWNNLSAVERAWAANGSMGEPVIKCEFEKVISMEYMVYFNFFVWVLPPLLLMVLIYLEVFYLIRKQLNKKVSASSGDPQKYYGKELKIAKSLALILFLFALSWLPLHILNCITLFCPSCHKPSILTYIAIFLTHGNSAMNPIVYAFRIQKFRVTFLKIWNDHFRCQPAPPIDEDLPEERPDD

Substance-P receptor = Substance-P receptor (Homo sapiens, UniProt P25103); format: cell membranes, Membrane; details: cho; also: in other assays of this panel Not Active means under 50% inhibition at 10 µM
[2] = DRUGMATRIX: Phosphodiesterase PDE4 enzyme inhibition (substrate: [3H]cAMP + cAMP); details: u-937; Not Active = under 50% inhibition at 10 µM
[3] = target: T3, Alpha-1A adrenergic receptor (Rattus norvegicus, UniProt P43140); assay: DRUGMATRIX: Alpha-1A adrenergic receptor radioligand binding (ligand: prazosin); format: cell membranes, Wistar, Submaxillary gland, Membrane; details: Not Active = under 50% inhibition at 10 µM
T3 sequence (P43140 whole entry): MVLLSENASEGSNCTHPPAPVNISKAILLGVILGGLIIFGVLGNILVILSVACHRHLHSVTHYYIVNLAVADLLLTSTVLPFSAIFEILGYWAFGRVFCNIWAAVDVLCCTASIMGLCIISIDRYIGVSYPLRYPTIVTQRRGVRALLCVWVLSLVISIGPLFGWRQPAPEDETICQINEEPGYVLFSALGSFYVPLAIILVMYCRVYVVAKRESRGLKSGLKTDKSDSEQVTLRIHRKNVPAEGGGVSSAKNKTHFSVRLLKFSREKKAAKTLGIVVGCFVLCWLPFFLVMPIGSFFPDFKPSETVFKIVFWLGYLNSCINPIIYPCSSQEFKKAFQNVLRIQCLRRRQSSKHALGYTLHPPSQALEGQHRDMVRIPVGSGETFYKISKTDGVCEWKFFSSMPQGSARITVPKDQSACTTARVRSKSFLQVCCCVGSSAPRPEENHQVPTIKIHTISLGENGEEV

Cytochrome P450 2E1 = Cytochrome P450 2E1 (Homo sapiens, UniProt P05181); details: bti-tn-5b1-4; also: in other assays of this panel Not Active means under 50% inhibition at 10 µM
Cathepsin G = target: T4, Cathepsin G (Homo sapiens, UniProt P08311); format: tissue-based; details: neutrophil
T4 sequence (P08311 whole entry): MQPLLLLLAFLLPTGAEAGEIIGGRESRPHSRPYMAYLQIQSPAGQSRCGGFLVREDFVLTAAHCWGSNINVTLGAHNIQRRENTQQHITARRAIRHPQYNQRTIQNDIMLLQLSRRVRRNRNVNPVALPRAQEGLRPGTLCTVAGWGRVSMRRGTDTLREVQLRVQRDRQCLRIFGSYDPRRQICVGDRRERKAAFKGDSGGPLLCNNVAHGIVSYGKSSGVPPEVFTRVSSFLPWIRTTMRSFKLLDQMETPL

[4] = target: Protein phosphatase 3 catalytic subunit alpha (Homo sapiens, UniProt Q08209); design: species or system Escherichia coli

Cytochrome P450 2E1, sequence (P05181 whole entry): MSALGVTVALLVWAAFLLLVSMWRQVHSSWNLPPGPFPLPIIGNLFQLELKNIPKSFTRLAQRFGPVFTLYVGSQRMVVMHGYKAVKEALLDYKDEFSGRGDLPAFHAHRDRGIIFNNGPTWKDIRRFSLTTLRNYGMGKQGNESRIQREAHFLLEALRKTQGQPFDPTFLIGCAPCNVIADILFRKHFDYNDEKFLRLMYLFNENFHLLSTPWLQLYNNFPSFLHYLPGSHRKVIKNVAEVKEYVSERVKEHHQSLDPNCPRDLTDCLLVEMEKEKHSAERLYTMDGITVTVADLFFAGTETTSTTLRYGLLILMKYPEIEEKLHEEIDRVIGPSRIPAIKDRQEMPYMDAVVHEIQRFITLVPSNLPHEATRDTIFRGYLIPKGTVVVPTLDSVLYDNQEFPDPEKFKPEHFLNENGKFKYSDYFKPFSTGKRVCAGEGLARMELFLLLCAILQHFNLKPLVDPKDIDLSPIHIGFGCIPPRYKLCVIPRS
Substance-P receptor, sequence (P25103 whole entry): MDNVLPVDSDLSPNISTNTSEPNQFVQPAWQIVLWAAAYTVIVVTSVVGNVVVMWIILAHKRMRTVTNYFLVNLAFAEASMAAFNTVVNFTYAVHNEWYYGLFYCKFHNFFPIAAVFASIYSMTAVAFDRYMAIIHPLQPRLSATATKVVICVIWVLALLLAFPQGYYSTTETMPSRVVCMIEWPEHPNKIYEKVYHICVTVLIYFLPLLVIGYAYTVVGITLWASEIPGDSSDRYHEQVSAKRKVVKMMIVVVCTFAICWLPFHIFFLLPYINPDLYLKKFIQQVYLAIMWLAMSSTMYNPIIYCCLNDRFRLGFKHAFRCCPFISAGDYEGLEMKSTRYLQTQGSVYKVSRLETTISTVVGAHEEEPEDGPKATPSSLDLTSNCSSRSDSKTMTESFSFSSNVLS

COc1ccccc1C(=O)N1CCC(Cc2ccccc2)CC1
Not Active: IC50 (Thromboxane-A synthase) | IC50 [1] | Ki [1] | IC50 (Adenosine receptor A1) | IC50 (Substance-P receptor) | IC50 [2] | Ki [2] | IC50 [3] | IC50 (Cytochrome P450 2E1) | Ki (Cytochrome P450 2E1) | IC50 (Cathepsin G) | IC50 [4]

Cc1ccccc1C(=O)N1CCC(Cc2ccccc2)CC1
Not Active: IC50 (Thromboxane-A synthase) | IC50 [1] | Ki [1] | IC50 (Adenosine receptor A1) | IC50 (Substance-P receptor) | IC50 [2] | Ki [2] | IC50 [3] | IC50 (Cytochrome P450 2E1) | Ki (Cytochrome P450 2E1) | IC50 (Cathepsin G) | IC50 [4]

O=C1CC[C@H](N2C(=O)c3ccccc3C2=O)C(=O)N1
Not Active: IC50 (Thromboxane-A synthase) | IC50 [1] | Ki [1] | IC50 (Adenosine receptor A1) | IC50 (Substance-P receptor) | IC50 [2] | Ki [2] | IC50 [3] | IC50 (Cytochrome P450 2E1) | Ki (Cytochrome P450 2E1) | IC50 (Cathepsin G) | IC50 [4]

N=C(Nc1ccccc1)Nc1ccccc1
Not Active: IC50 (Thromboxane-A synthase) | IC50 [1] | Ki [1] | IC50 (Adenosine receptor A1) | IC50 (Substance-P receptor) | IC50 [2] | Ki [2] | IC50 [3] | IC50 (Cytochrome P450 2E1) | Ki (Cytochrome P450 2E1) | IC50 (Cathepsin G) | IC50 [4]

C[C@@H](O)[C@H](CO)NC(=O)[C@@H]1CSSC[C@H](NC(=O)[C@H](N)Cc2ccccc2)C(=O)N[C@@H](Cc2ccccc2)C(=O)N[C@H](Cc2c[nH]c3ccccc23)C(=O)N[C@@H](CCCCN)C(=O)N[C@@H]([C@@H](C)O)C(=O)N1 (H-[dF]CF[dW]KTC-{Threoninol(2S,3R)}; disulfide 2-7)
Not Active: IC50 (Thromboxane-A synthase) | IC50 [1] | Ki [1] | IC50 (Adenosine receptor A1) | IC50 (Substance-P receptor) | IC50 [2] | Ki [2] | IC50 [3] | IC50 (Cytochrome P450 2E1) | Ki (Cytochrome P450 2E1) | IC50 (Cathepsin G) | IC50 [4]

S=C=Nc1cccc2ccccc12 [1-NAPHTHYLISOTHIOCYANATE]
Not Active: IC50 (Thromboxane-A synthase) | IC50 [1] | Ki [1] | IC50 (Adenosine receptor A1) | IC50 (Substance-P receptor) | IC50 [2] | Ki [2] | IC50 [3] | IC50 (Cytochrome P450 2E1) | Ki (Cytochrome P450 2E1) | IC50 (Cathepsin G) | IC50 [4]

C[C@](O)(CS(=O)(=O)c1ccc(F)cc1)C(=O)Nc1ccc(C#N)c(C(F)(F)F)c1 [(R)-BICALUTAMIDE]
Not Active: IC50 (Thromboxane-A synthase) | IC50 [1] | Ki [1] | IC50 (Adenosine receptor A1) | IC50 (Substance-P receptor) | IC50 [2] | Ki [2] | IC50 [3] | IC50 (Cytochrome P450 2E1) | Ki (Cytochrome P450 2E1) | IC50 (Cathepsin G) | IC50 [4]

CCCC(=O)Nc1ccc(OCC(O)CNC(C)C)c(C(C)=O)c1 (centres undefined) [ACEBUTOLOL]
Not Active: IC50 (Thromboxane-A synthase) | IC50 [1] | Ki [1] | IC50 (Adenosine receptor A1) | IC50 (Substance-P receptor) | IC50 [2] | Ki [2] | IC50 [3] | IC50 (Cytochrome P450 2E1) | Ki (Cytochrome P450 2E1) | IC50 (Cathepsin G) | IC50 [4]

CC(=O)Nc1ccc(O)cc1 [ACETAMINOPHEN]
Not Active: IC50 (Thromboxane-A synthase) | IC50 [1] | Ki [1] | IC50 (Adenosine receptor A1) | IC50 (Substance-P receptor) | IC50 [2] | Ki [2] | IC50 [3] | IC50 (Cytochrome P450 2E1) | Ki (Cytochrome P450 2E1) | IC50 (Cathepsin G) | IC50 [4]

COc1cc2c(c3oc(=O)c4c(c13)CCC4=O)[C@@H]1C=CO[C@@H]1O2 [AFLATOXIN]
Not Active: IC50 (Thromboxane-A synthase) | Ki (Thromboxane-A synthase) | IC50 [1] | Ki [1] | IC50 (Adenosine receptor A1) | Ki (Adenosine receptor A1) | IC50 (Substance-P receptor) | Ki (Substance-P receptor) | IC50 [2] | Ki [2] | IC50 [3] | Ki [3] | IC50 (Cytochrome P450 2E1) | Ki (Cytochrome P450 2E1) | IC50 (Cathepsin G) | Ki (Cathepsin G) | IC50 [4] | Ki [4]

O=C1CC2(CCCC2)CC(=O)N1CCCCN1CCN(c2ncccn2)CC1 [BUSPIRONE]
Not Active: IC50 (Thromboxane-A synthase) | IC50 [1] | Ki [1] | IC50 (Adenosine receptor A1) | IC50 (Substance-P receptor) | IC50 [2] | Ki [2] | IC50 (Cytochrome P450 2E1) | Ki (Cytochrome P450 2E1) | IC50 (Cathepsin G) | IC50 [4]

O=NN(CCCl)C(=O)NCCCl [CARMUSTINE]
Not Active: IC50 (Thromboxane-A synthase) | IC50 [1] | Ki [1] | IC50 (Adenosine receptor A1) | IC50 (Substance-P receptor) | IC50 [2] | Ki [2] | IC50 [3] | IC50 (Cathepsin G) | IC50 [4]

O=C(N[C@H](CO)[C@H](O)c1ccc([N+](=O)[O-])cc1)C(Cl)Cl [CHLORAMPHENICOL]
Not Active: IC50 (Thromboxane-A synthase) | IC50 [1] | Ki [1] | IC50 (Adenosine receptor A1) | IC50 (Substance-P receptor) | IC50 [2] | Ki [2] | IC50 [3] | IC50 (Cathepsin G) | IC50 [4]

C[C@@H]1C[C@@H]([C@H](O)CC2CC(=O)NC(=O)C2)C(=O)[C@@H](C)C1 [CYCLOHEXIMIDE]
Not Active: IC50 (Thromboxane-A synthase) | IC50 [1] | Ki [1] | IC50 (Adenosine receptor A1) | IC50 (Substance-P receptor) | IC50 [2] | Ki [2] | IC50 [3] | IC50 (Cathepsin G) | IC50 [4]

C/C=C/C[C@@H](C)[C@@H](O)[C@H]1C(=O)N[C@@H](CC)C(=O)N(C)CC(=O)N(C)[C@@H](CC(C)C)C(=O)N[C@@H](C(C)C)C(=O)N(C)[C@@H](CC(C)C)C(=O)N[C@@H](C)C(=O)N[C@H](C)C(=O)N(C)[C@@H](CC(C)C)C(=O)N(C)[C@@H](CC(C)C)C(=O)N(C)[C@@H](C(C)C)C(=O)N1C [CYCLOSPORINE]
Not Active: IC50 (Thromboxane-A synthase) | IC50 [1] | Ki [1] | IC50 (Adenosine receptor A1) | IC50 (Substance-P receptor) | IC50 [2] | Ki [2] | IC50 [3] | IC50 (Cathepsin G)

NC(=O)NO [HYDROXYUREA]
Not Active: IC50 (Thromboxane-A synthase) | IC50 [1] | Ki [1] | IC50 (Adenosine receptor A1) | IC50 (Substance-P receptor) | IC50 [2] | Ki [2] | IC50 [3] | IC50 (Cathepsin G) | IC50 [4]

COc1ccc2cc([C@H](C)C(=O)O)ccc2c1 [NAPROXEN]
Not Active: IC50 (Thromboxane-A synthase) | IC50 [1] | Ki [1] | IC50 (Adenosine receptor A1) | IC50 (Substance-P receptor) | IC50 [3] | IC50 (Cathepsin G) | IC50 [4]

CCn1cc(C(=O)O)c(=O)c2cc(F)c(N3CCN(C)CC3)cc21 [PEFLOXACIN]
Not Active: IC50 (Thromboxane-A synthase) | IC50 [1] | Ki [1] | IC50 (Adenosine receptor A1) | IC50 (Substance-P receptor) | IC50 [2] | Ki [2] | IC50 [3] | IC50 (Cathepsin G) | IC50 [4]
